From PMC6784069 (Toxins, 2019) come the findings set out here.

The structures appear in SMILES notation. Residues, ends and D or L forms follow the SMILES beside them.

What is called IC50 is the concentration that gives 50% inhibition.

For this test, the target named is hNaV1.7 (Homo sapiens, UniProt Q15858). Briefly: cell-based. In kind it is cell-based. The conditions noted are these: for IC50: hNaV1.7 IC50, SD.
hNaV1.7, sequence (Q15858 whole entry): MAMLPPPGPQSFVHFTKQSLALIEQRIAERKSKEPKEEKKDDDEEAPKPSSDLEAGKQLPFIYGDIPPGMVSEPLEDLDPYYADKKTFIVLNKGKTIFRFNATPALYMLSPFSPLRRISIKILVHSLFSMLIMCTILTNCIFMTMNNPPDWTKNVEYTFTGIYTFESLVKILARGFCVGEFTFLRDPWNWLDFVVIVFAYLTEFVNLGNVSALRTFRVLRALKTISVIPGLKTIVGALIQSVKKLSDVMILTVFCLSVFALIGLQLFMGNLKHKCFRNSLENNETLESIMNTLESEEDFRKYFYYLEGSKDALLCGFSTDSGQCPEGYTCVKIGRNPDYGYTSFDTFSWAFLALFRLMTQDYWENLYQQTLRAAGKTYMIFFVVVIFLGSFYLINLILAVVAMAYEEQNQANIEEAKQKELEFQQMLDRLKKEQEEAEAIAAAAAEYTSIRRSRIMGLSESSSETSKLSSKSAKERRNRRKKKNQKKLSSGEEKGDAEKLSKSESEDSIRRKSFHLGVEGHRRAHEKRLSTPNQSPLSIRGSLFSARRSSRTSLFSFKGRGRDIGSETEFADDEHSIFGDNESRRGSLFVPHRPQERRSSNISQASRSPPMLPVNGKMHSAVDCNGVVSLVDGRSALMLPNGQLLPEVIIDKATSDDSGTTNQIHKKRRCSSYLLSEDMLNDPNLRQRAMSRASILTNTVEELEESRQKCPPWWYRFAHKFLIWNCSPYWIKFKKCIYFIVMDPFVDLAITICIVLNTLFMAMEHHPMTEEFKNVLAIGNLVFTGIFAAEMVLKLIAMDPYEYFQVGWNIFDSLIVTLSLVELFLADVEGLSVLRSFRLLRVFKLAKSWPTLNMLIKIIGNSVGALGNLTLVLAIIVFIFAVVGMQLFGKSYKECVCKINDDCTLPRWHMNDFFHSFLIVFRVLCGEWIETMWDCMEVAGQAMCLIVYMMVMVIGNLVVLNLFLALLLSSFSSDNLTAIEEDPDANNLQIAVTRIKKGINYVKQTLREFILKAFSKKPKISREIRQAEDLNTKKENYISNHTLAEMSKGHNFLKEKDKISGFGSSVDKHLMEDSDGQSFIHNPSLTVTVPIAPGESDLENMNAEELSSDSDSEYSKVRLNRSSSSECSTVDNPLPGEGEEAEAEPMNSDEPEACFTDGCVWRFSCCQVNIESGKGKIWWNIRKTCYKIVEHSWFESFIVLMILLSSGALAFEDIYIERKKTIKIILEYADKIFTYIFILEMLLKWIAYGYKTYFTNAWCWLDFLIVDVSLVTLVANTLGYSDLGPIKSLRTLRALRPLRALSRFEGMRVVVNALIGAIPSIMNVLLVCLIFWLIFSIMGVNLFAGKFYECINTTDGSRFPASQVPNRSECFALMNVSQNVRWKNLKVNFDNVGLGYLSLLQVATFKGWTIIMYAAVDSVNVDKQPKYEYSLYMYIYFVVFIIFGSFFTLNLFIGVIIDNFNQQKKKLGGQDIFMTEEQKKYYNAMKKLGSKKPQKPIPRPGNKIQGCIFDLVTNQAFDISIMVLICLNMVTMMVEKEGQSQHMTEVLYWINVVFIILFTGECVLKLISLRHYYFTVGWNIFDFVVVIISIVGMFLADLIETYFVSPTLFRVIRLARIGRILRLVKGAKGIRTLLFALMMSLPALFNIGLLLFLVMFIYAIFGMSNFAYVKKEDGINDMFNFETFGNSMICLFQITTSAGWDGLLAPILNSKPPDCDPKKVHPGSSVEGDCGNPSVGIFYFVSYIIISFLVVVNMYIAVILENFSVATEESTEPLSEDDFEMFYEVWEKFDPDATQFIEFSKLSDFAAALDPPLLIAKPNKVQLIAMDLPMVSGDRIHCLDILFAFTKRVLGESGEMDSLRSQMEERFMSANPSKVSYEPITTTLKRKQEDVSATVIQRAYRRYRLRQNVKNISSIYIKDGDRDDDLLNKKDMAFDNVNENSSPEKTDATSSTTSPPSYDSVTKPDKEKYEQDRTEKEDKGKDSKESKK

On to `CC(C)C[C@@H]1NC(=O)[C@@H](NC(=O)[C@@H]2CCC(=O)N2)CSSC[C@@H]2NC(=O)[C@@H]3CSSC[C@@H](C(=O)N[C@@H](CCCNC(=N)N)C(=O)N[C@@H](Cc4ccc(O)cc4)C(=O)N[C@@H](CCCCN)C(=O)N[C@@H](CC(C)C)C(=O)N[C@@H](Cc4ccccc4)C(=O)O)NC(=O)[C@H](Cc4c[nH]c5ccccc45)NC(=O)[C@@H]4CCCN4C(=O)[C@H](Cc4ccc(O)cc4)NC(=O)[C@H](CCCCN)NC(=O)[C@H](Cc4c[nH]c5ccccc45)NC(=O)[C@H](CCC(=O)O)NC(=O)[C@H](CSSC[C@H](NC(=O)[C@H](CO)NC(=O)[C@H](CC(=O)O)NC(=O)[C@H](Cc4c[nH]c5ccccc45)NC(=O)[C@H](CCC(N)=O)NC(=O)CNC1=O)C(=O)N[C@@H](CC(=O)O)C(=O)N1CCC[C@H]1C(=O)N[C@@H](CCCCN)C(=O)N[C@@H](C)C(=O)N[C@@H](CO)C(=O)N[C@@H](CCCCN)C(=O)N3)NC(=O)[C@H](C)NC(=O)[C@H](Cc1ccc(O)cc1)NC(=O)[C@H](CC(N)=O)NC(=O)[C@@H]1CCCN1C2=O` [A1Z] (HELM PEPTIDE1{[Glp].C.L.G.Q.W.D.S.C.D.P.K.A.S.K.C.C.P.N.Y.A.C.E.W.K.Y.P.W.C.R.Y.K.L.F}$PEPTIDE1,PEPTIDE1,2:R3-17:R3|PEPTIDE1,PEPTIDE1,9:R3-22:R3|PEPTIDE1,PEPTIDE1,16:R3-29:R3$$$V2.0), for which the “modification of variant affinity for hNaV1.7 relative to wild-type” value is “less than 3 fold” and it took 0.172 µM to reach half-maximal inhibition (IC50).

Take `CC(C)C[C@@H]1NC(=O)[C@@H](NC(=O)[C@H](C)N)CSSC[C@@H]2NC(=O)[C@@H]3CSSC[C@@H](C(=O)N[C@@H](CCCNC(=N)N)C(=O)N[C@@H](Cc4ccc(O)cc4)C(=O)N[C@@H](CCCCN)C(=O)N[C@@H](CC(C)C)C(=O)N[C@@H](Cc4ccccc4)C(=O)O)NC(=O)[C@H](Cc4c[nH]c5ccccc45)NC(=O)[C@@H]4CCCN4C(=O)[C@H](Cc4ccc(O)cc4)NC(=O)[C@H](CCCCN)NC(=O)[C@H](Cc4c[nH]c5ccccc45)NC(=O)[C@H](CCC(=O)O)NC(=O)[C@H](CSSC[C@H](NC(=O)[C@H](CO)NC(=O)[C@H](CC(=O)O)NC(=O)[C@H](Cc4c[nH]c5ccccc45)NC(=O)[C@H](CCC(N)=O)NC(=O)CNC1=O)C(=O)N[C@@H](CC(=O)O)C(=O)N1CCC[C@H]1C(=O)N[C@@H](C)C(=O)N[C@@H](C)C(=O)N[C@@H](CO)C(=O)N[C@@H](CCCCN)C(=O)N3)NC(=O)[C@H](C)NC(=O)[C@H](Cc1ccc(O)cc1)NC(=O)[C@H](CC(N)=O)NC(=O)[C@@H]1CCCN1C2=O` [K12A] (HELM PEPTIDE1{A.C.L.G.Q.W.D.S.C.D.P.A.A.S.K.C.C.P.N.Y.A.C.E.W.K.Y.P.W.C.R.Y.K.L.F}$PEPTIDE1,PEPTIDE1,2:R3-17:R3|PEPTIDE1,PEPTIDE1,9:R3-22:R3|PEPTIDE1,PEPTIDE1,16:R3-29:R3$$$V2.0): the “modification of variant affinity for hNaV1.7 relative to wild-type” value was “less than 3 fold” and the IC50 was 0.253 µM.
